From patent US20070142345A1, “Steroids for cancer treatment” (priority 2004, published 2007)

How the values were obtained:
hER-α = target: T1, hER-α (Homo sapiens, UniProt P03372); experiment: In vitro binding affinity to the estrogen receptor-α, displacement assay with 0.5 nM 3H-estradiol; conditions: hER-α recombinant, insect Sf cells, 0.5 nM 3H-estradiol radioligand, tested 0.03-10.0 nM; for IC50: read-out: ERα-aff IC50; for Ki: read-out: ERα-aff Ki
T1 construct: purchased MDS PharmaServices (contract assay); host or cells: insect Sf cells
T1 sequence (P03372 1-595): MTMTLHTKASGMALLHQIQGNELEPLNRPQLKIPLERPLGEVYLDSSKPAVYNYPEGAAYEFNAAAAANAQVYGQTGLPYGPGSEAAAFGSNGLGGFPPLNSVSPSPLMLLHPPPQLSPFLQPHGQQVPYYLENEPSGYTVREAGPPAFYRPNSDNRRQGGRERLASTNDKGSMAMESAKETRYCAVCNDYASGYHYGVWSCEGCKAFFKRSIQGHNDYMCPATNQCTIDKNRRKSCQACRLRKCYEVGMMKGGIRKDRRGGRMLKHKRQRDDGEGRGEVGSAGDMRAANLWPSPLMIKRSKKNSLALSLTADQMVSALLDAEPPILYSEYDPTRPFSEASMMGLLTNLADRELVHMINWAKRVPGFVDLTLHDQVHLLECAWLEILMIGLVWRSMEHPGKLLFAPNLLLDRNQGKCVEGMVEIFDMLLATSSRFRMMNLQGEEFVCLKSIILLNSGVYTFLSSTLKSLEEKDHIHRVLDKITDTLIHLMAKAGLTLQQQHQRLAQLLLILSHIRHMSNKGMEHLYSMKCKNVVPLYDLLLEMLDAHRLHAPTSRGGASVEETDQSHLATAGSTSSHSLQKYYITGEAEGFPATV
Experimental: In Vitro Binding Affinty to the Estrogen Receptor-α (MDS PharmaServices)
Binding affinity was determined in a displacement assay using hER-α (recombinant, insect Sf cells) with 0.5 nM ^3H-estradiol as radioligand. The compounds were tested in concentrations from 0.03-10.0 nM. Results are given as IC50 and Ki.

[1] = system: ICR derived immature female mice; experiment: In vivo estrogenic agonism, uterine wet weight; conditions: 10 mg/kg s.c., three consecutive days, uterus wet weight 24 h after final dose
Experimental: In Vivo Estrogenic Agonism (MDS PharmaServices)
Compounds were administered s.c. (10 mg/kg) for three consecutive days to a group of 5 ICR derived immature female mice weighing approx. 13 g. The animals were sacrificed 24 h after the final dose and wet weight of the uterus was measured. A 50% or greater increase in the uterine weight relative to the vehicle control group indicates possible estrogen agonist activity.

[2] = system: ICR derived immature female mice; experiment: In vivo estrogenic antagonism, estradiol-benzoate challenge, uterine wet weight; parameters: unit: %; conditions: 10 mg/kg s.c., three consecutive days, estradiol-benzoate 3 μg/kg s.c. challenge, uterus wet weight 24 h after final dose
Experimental: In Vivo Estrogenic Antagonism (MDS PharmaServices)
Compounds were administered s.c. (10 mg/kg) for three consecutive days to a group of 5 ICR derived immature female mice weighing approx. 13 g and challenged with estradiol-benzoate (3 μg/kg s.c.) immediately after each daily dosing. The animals were sacrificed 24 h after the final dose and wet weight of the uterus was measured. A 50% or greater reduction in the estradiol-induced increase in uterine weight indicates possible estrogen antagonist activity.

| IC50 (hER-α) [nM] | Ki (hER-α) [nM] | SMILES | In vivo agonism (increase in uterine weight relative to vehicle control) [1] [%] | in vivo antagonism (reduction in the estradiol-induced increase in uterine weight) [2] |
| --- | --- | --- | --- | --- |
| > 10 | > 10 | CO[C@@H]1c2cc(O)ccc2C2CC[C@@]3(C)C(C[C@@H](O)C34CC4)C2[C@@H]1CCCCCCCCC[S+]([O-])CCCC(F)(F)C(F)(F)F (stereo partly drawn) [Ex 14, 17-(1,2-Ethylene)-3,16α-dihydroxy-6α-methoxy-7α-[9-[(4,4,5,5,5-pentafluoro-n-pentyl)sulfinyl]nonyl]-estra-1,3,5(10)-triene] |  |  |
| 4.75 | 1.36 | C[C@]12CCC3c4ccc(O)cc4C(=O)[C@@H](CCCCCCCCC[S+]([O-])CCCC(F)(F)C(F)(F)F)C3C1C[C@@H](O)C21CC1 (stereo partly drawn) [Ex 10, 17-(1,2-Ethylene)-3,16α-dihydroxy-6-keto-7α-[9-[(4,4,5,5,5-pentafluoro-n-pentyl)sulfinyl]nonyl]-estra-1,3,5(10)-triene] |  |  |
| 10.2 | 2.91 | CO[C@H]1c2cc(O)ccc2C2CC[C@@]3(C)C(C[C@@H](O)C34CC4)C2[C@@H]1CCCCCCCCC[S+]([O-])CCCC(F)(F)C(F)(F)F (some centres unmarked) [Ex 8] |  |  |
| 1.04 | 0.3 | C[C@]12CCC3c4ccc(O)cc4[C@H](F)[C@@H](CCCCCCCCC[S+]([O-])CCCC(F)(F)C(F)(F)F)C3C1C[C@@H](O)C21CC1 (stereo partly drawn) [Ex 16, 17-(1,2-Ethylene)-6β-fluoro-3,16α-dihydroxy-7α-[9-[(4,4,5,5,5-pentafluoro-n-pentyl)sulfinyl]nonyl]-estra-1,3,5(10)-triene] |  |  |
| 1.59 | 0.45 | C[C@]12CCC3c4ccc(O)cc4[C@@H](O)[C@@H](CCCCCCCCC[S+]([O-])CCCC(F)(F)C(F)(F)F)C3C1C[C@@H](O)C21CC1 (stereo partly drawn) [Ex 12, 17-(1,2-Ethylene)-3,6α,16α-trihydroxy-7α-[9-[(4,4,5,5,5-pentafluoro-n-pentyl)sulfinyl]nonyl]-1,3,5(10)-triene] |  |  |
| 0.92 | 0.26 | C[C@]12CCC3c4ccc(O)cc4C[C@@H](CCCCCCCCC[S+]([O-])CCCC(F)(F)C(F)(F)F)C3C1C[C@@H](O)C21CC1 (stereo partly drawn) [Ex 18, 17-(1,2-Ethylene)-3,16α-dihydroxy-7α-[9-[(4,4,5,5,5-pentafluoro-n-pentyl)sulfinyl]nonyl]-estra-1,3,5(10)-triene] |  |  |

More lines, now with the values behind:

| SMILES | IC50 (hER-α) [nM] | Ki (hER-α) [nM] | In vivo agonism (increase in uterine weight relative to vehicle control) [1] [%] | in vivo antagonism (reduction in the estradiol-induced increase in uterine weight) [2] |
| --- | --- | --- | --- | --- |
| C=C1[C@H](O)C[C@H]2[C@@H]3[C@H](CCCCCCCCCCC(=O)N(C)CCCC)Cc4cc(O)ccc4[C@H]3CC[C@]12C [Ex 1, 11-(3,16α-Dihydroxy-17-methylene-estra-1,3,5(10)-triene-7α-yl)-undecanoic acid n-butyl-methyl-amide] | 3.5 | 1 | 1 | 61 |
| CCCCN(C)C(=O)CCCCCCCCCC[C@@H]1Cc2cc(O)ccc2C2CC[C@@]3(C)C(C[C@@H](O)C34CC4)C21 (stereo partly drawn) [Ex 4, 11-(17-(1,2-Ethylene)-3,16α-dihydroxy-estra-1,3,5(10)-triene-7α-yl)-undecanoic acid n-butyl-methyl-amide] | 2.48 | 0.71 | 4 | 58 |
| CC12CCC3c4ccc(O)cc4CC(CCCCCCCCC[S+]([O-])CCCC(F)(F)C(F)(F)F)C3C1CCC2O (centres unmarked) [ICI 182, 780, reference compound] |  |  |  | 66 |
| C=C1[C@H](O)CC2C3C(CC[C@]12C)c1ccc(O)cc1C[C@H]3CCCCCCCCC[S+]([O-])CCCC(F)(F)C(F)(F)F (some centres unmarked) [Ex 5] | 1.19 | 0.34 | 8 | 55 |
| CCCCN(C)C(=O)CCCCCCCCCC[C@@H]1Cc2cc(O)ccc2[C@H]2CC[C@]3(C)[C@@H](O)CC[C@H]3[C@H]12 [ICI 164, 384, 11-(3,17β-Dihydroxy-estra-1,3,5(10)-triene-7α-yl)-undecanoic acid n-butyl-methyl-amide, reference compound] |  |  |  | 66 |
